Eleven compounds from PubChem BioAssay AID2060358 (Molecular Pharmacology Branch, DTP, NCI, 2025) can be followed below.

SMILES strings stand for the structures. Several values for one entry are separate records, joined by “and”; a condition that tells them apart may be missing. Identical values can stand only once. Bounds are passed on as bounds.

Usually viability, T/C stands for the ratio of treated to control. In general, IC50 refers to the midpoint of a concentration-inhibition curve.

In this experiment the test system is 254851-301-R-J1-PDC spheroids, viability % test/control. The experiment in a line: Anticancer human tumor 254851-301-R-J1-PDC patient-derived colon carcinoma cell line growth inhibition [TAK]. The following applies: spheroids with HUVEC and MSC; for viability, T/C: stronger effect = lower value. The text has this:
Combinatorial screen of targeted agents with TAK-243 and ipatasertib in multi-cell type tumor spheroids
A high-throughput screen of multi-cell type tumor spheroids was designed to identify active combinations of targeted small molecules and TAK-243 or ipatasertib. Complex spheroids include a stromal component modeled by human endothelial cells (HUVEC) and fibroblasts modeled by human mesenchymal stem cells (MSCs). The concentration ranges selected for each drug and investigational agent were based upon clinically achievable concentrations if the clinical Cmax of the agent was known.
Compounds. The drugs and investigational agents: TAK-243 (785004), ipatasertib (767898), everolimus (733504), selumetinib (741078), bortezomib (756655), trametinib (758246), ixazomib (758254), vemurafenib (761431), dabrafenib (764134), sapanisertib (764658), alpelisib (765974), and copanlisib (816437), were obtained from the National Cancer Institute (NCI) Developmental Therapeutics Program Chemical Repository. The FDA-approved anticancer drug set is available from the NCI Developmental Therapeutics Program. […] The stock solutions were prepared in dimethyl sulfoxide (DMSO, Sigma-Aldrich, St. Louis, MO, cat. D2650) at 800-fold the tested concentration and stored at -70 degrees C prior to their use. All drugs and investigational agents were tested over a range starting from a high concentration at or near the clinical Cmax and decreasing in half-log increments. If the clinical Cmax for an agent had not been determined, the highest concentration tested was 10 microM.
NCI60 Cell Culture. NCI60 cell lines were obtained from the NCI Developmental Therapeutics Program Tumor Repository. For each lot of cells, the Repository performed Applied Biosystems AmpFLSTR Identifiler testing with PCR amplification to confirm consistency with the published Identifier STR profile for each cell line. Cells were kept in continuous culture for no more than 20 passages. The optimal seeding densities for each of the cell lines at each time point assessed were determined prior to performing the concentration response studies. Briefly, the NCI60 human tumor lines were grown as monolayers in RPMI 1640 medium supplemented with 10% FBS and 2 mmol/L L-glutamine.
An additional 2 lines were from the NCI60 cell line panel including melanomas, MALME-3M and SK-MEL-2. Pooled donor human umbilical vein endothelial cells (HUVEC, Lonza, cat. CC-2519) and human mesenchymal stem cells (hMSC, Lonza, cat. PT-2501) were purchased from Lonza (Walkersville, MD).
PDMR cell lines were grown in complete medium (DC medium): Dulbecco's modified Eagle's medium (DMEM)/F12 supplemented with 5% fetal bovine serum (FBS), 2 mM L-glutamine, 100 U/mL penicillin and 100 µg/ml streptomycin, 0.4 µg/ml hydrocortisone, 10 ng/ml epidermal growth factor (EGF) recombinant human protein, 24 µg/mL adenine, and 0.1 mg/mL primocin. During culture from frozen stock vials, PDMR cells were cultured in the same medium containing 10 µM Y-27632 (see Table 3). The PDCs were cultured in complete DMEM/F12 media without 10 microM Y-27632 dihydrochloride for at least two passages prior to the screen. The pooled donor HUVEC and hMSC were cultured in endothelial cell growth medium 2 (PromoCell, Heidelberg, Germany, cat. C-22011) and mesenchymal stem cell growth medium 2 (PromoCell, cat. C-28009), respectively. For all experiments, HUVEC and hMSC were used at passages </=5.
For the pre-screen, cell seeding densities were determined from a titration spanning the range from 5,000 to 313 cells per well. The mct-spheroids including 60% malignant cells, 25% HUVEC and 15% MSC dispensed as a mixture into U-bottom Ultra-Low Attachment 384-well plates (Corning, NY)
High-throughput Drug Combination Screening.
Prior to their inoculation into 384-well plates, malignant cells, HUVEC, and hMSC were removed from T flasks using TrypLE express (Thermo Fisher Scientific, cat. 12605036) and harvested by centrifugation for 5 min at 233 x g. […]
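Also: spheroids exposed to drugs for seven days before viability readout.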

Turning to `CC(=O)Nc1cccc(-n2c(=O)n(C3CC3)c(=O)c3c(Nc4ccc(I)cc4F)n(C)c(=O)c(C)c32)c1`, the viability, T/C runs as follows: (compound 94.9 pM) 117% and 114%; (compound 0.0003 µM) 114% and 116%; (compound 0.000949 µM) 105% and 107%; (compound 0.003 µM) 117% and 99%; (compound 0.00949 µM) 97.5% and 83.9%; (compound 0.03 µM) 16.8% and 18.9%. Under “curve of compound”, the 50% inhibitory concentration (IC50) is 0.0187 µM and 0.017 µM.

On to `CC(C)(C)c1nc(-c2cccc(NS(=O)(=O)c3c(F)cccc3F)c2F)c(-c2ccnc(N)n2)s1`, for which the viability, T/C runs as follows: (compound 0.0316 µM) 116% and 118%; (compound 0.1 µM) 105%; (compound 0.316 µM) 92.3% and 86.4%; (compound 1 µM) 82.1% and 82.5%; (compound 3.16 µM) 86.8% and 82.2%; (compound 10 µM) 80.3% and 77.6%. In addition, the IC50 (curve of compound) was above 10 µM.

Consider `CC(C)CC(NC(=O)C(Cc1ccccc1)NC(=O)c1cnccn1)B(O)O` (configuration not stated), for which the viability, T/C reads like this: (compound 31.6 pM) 118% and 114%; (compound 0.0001 µM) 107%; (compound 0.000316 µM) 111% and 101%; (compound 0.001 µM) 98.9% and 100%; (compound 0.00316 µM) 98.5% and 99.1%; (compound 0.01 µM) 75.7% and 80.8%. The IC50 (curve of compound) is above 0.01 µM.

Regarding `CC(C)CC(NC(=O)CNC(=O)c1cc(Cl)ccc1Cl)B1OC(=O)CC(CC(=O)O)(C(=O)O)O1` (configuration not stated), the viability, T/C reads like this: (compound 0.000316 µM) 110% and 112%; (compound 0.001 µM) 110%; (compound 0.00316 µM) 96.8% and 99.7%; (compound 0.01 µM) 94.7% and 102%; (compound 0.0316 µM) 78.2%; (compound 0.1 µM) 18.6% and 24.4%. Moreover, the IC50 (curve of compound) is 0.0532 µM and 0.0581 µM.

Regarding `CC(C)NCC(C(=O)N1CCN(c2ncnc3c2C(C)CC3O)CC1)c1ccc(Cl)cc1` (configuration not stated), the viability, T/C (compound 0.3 µM) was 91.8% [middle of 10 runs]; the viability, T/C (compound 0.949 µM) was 91.8% [middle of 10 runs]; the viability, T/C (compound 3 µM) is 95% [middle of 10 runs]; the viability, T/C (compound 9.49 µM) was 91.9% [middle of 10 runs]; the viability, T/C (compound 30 µM) is 86% [middle of 10 runs]. Also, the IC50 by setting is: (compound alone, run of 02/28/2020) above 30 µM; (compound alone, run of 03/19/2020) above 30 µM.

Regarding `CC(C)n1nc(-c2ccc3oc(N)nc3c2)c2c(N)ncnc21`, the viability, T/C was 125% and 110% (compound 0.000316 µM); 104% and 109% (compound 0.001 µM); 89.8% and 90.4% (compound 0.00316 µM); 76.5% and 81.7% (compound 0.01 µM); 55.7% and 52.2% (compound 0.0316 µM); 34.5% and 34.2% (compound 0.1 µM). Besides, the 50% inhibitory concentration (IC50) (curve of compound) was 0.0425 µM and 0.0403 µM.

In the case of `CCCS(=O)(=O)Nc1ccc(F)c(C(=O)c2c[nH]c3ncc(-c4ccc(Cl)cc4)cc23)c1F`, the viability, T/C is, setting by setting: (compound 0.316 µM) 109% and 106%; (compound 1 µM) 93.3% and 90.5%; (compound 3.16 µM) 84.6% and 79.4%; (compound 10 µM) 72.3% and 77.4%; (compound 31.6 µM) 73.7% and 71.4%; (compound 100 µM) 63.9% and 73.8%. Moreover, the IC50 (curve of compound) is above 100 µM.

As for `COC1CC2CCC(C)C(O)(O2)C(=O)C(=O)N2CCCCC2C(=O)OC(C(C)CC2CCC(OCCO)C(OC)C2)CC(=O)C(C)C=C(C)C(O)C(OC)C(=O)C(C)CC(C)C=CC=CC=C1C` (configuration not stated), the viability, T/C by setting is: (compound 0.000316 µM) 114% and 108%; (compound 0.001 µM) 109% and 92%; (compound 0.00316 µM) 101% and 89.6%; (compound 0.01 µM) 101% and 91.6%; (compound 0.0316 µM) 96% and 85.4%; (compound 0.1 µM) 98.1% and 84%. In addition, the IC50 (curve of compound) is above 0.1 µM.

Take `COc1c(OCCCN2CCOCC2)ccc2c3n(c(=NC(=O)c4cnc(N)nc4)nc12)CCN3`: the viability, T/C reads like this: (compound 0.00316 µM) 110% and 106%; (compound 0.01 µM) 96.2% and 96.4%; (compound 0.0316 µM) 87.8% and 82.2%; (compound 0.1 µM) 78% and 71.7%; (compound 0.316 µM) 75.6% and 65.8%; (compound 1 µM) 59.5% and 56.5%. In addition, the IC50 (curve of compound) is above 1 µM.

Turning to `Cc1nc(NC(=O)N2CCCC2C(N)=O)sc1-c1ccnc(C(C)(C)C(F)(F)F)c1` (configuration not stated), the viability, T/C reads like this: (compound 0.0316 µM) 123% and 110%; (compound 0.1 µM) 103% and 110%; (compound 0.316 µM) 95.7% and 91.7%; (compound 1 µM) 92.6% and 92.3%; (compound 3.16 µM) 84% and 79.1%; (compound 10 µM) 70.8% and 71.9%. The 50% inhibitory concentration (IC50) (curve of compound) was above 10 µM.

`Cn1cnc2c(F)c(Nc3ccc(Br)cc3Cl)c(C(=O)NOCCO)cc21`: the viability, T/C reads like this: (compound 0.00949 µM) 119% and 114%; (compound 0.03 µM) 120% and 117%; (compound 0.0949 µM) 105% and 117%; (compound 0.3 µM) 103% and 98.6%; (compound 0.949 µM) 76.3% and 84.4%; (compound 3 µM) 12.5% and 22.5%. The 50% inhibitory concentration (IC50) (curve of compound) is 1.51 µM and 1.76 µM.
